Assay results as given in patent US4386103A, “Dichloroamino acid derivatives useful as potent germicidal and fungicidal agents” (Merck & Co., Inc., priority 1981, dated 1983).

Experiments:
Staphylococcus aureus = experiment: Contact germicidal screen, Staphylococcus aureus ATCC No. 6538; type: cell-based
Method: (§1) The organisms used in the contact germicidal screen are all maintained as stock cultures on nutrient agar […] 4° C. They are transferred and biochemically diagnosed monthly. The five organisms used are: The media used are: […] Overnight cultures of the test organisms are grown in tryptose phosphate broth. After 15-16 hours, the cultures are centrifuged at […] for 15 minutes, and the supernatant replaced with fresh warm (37° C.) media. After two hours of incubation, the absorbance of the culture at 650 nm is determined and diluted with nutrient broth to 1×10^7 colony forming units per ml (using a previous determined standard curve: colony forming units/ml vs. absorbance at 650). The diluted cultures are maintained at 4°-8° C. throughout the screen. The compounds are weighed into sterile 100 ml volumetric flasks, and immediately before screening dissolved in one of the following buffers: 0.1 M NaOAc pH 4.6 or 0.1 M NaH2 PO4 pH 7.0. If solubility poses a problem, 10-30% methanol is used to effect solution. Two denaturing agents are also tested: […] Horse Serum restored with 100 ml distilled water and 10% Trition×100. When used, 2.5 ml of the denaturing agent is mixed with 2.5 ml of double strength test solution thirty minutes before the bacterial suspension is added. The screen is initiated when 0.2 ml of the bacterial suspension is added to 5.0 ml of the test solution contained in a sterile 25 ml glass stoppered flask. At intervals of 0.5, 2.5, 5.0, 10.0 and 15.0 minutes, a loopful of the inoculated test solution is subcultured into 5 ml of sterile nutrient broth and mixed with a vortex, the high dilution serving to stop the action of the compound. All of the subculture tubes are incubated at 37° C. and checked for signs of growth by turbidity at 1, 3, 5 and 7 days. The earliest subculture time at which no growth is present is considered the endpoint and is recorded as the sterilization time. An aliquot of 0.2 ml of the diluted culture is transferred to 5 ml of buffer to simulate 0.2 ml in 5 ml of test solution. (a) Purity: A loopful of the inoculated buffer is streaked onto nutrient agar to check colony morphology and lack of contaminants. (b) Viability: A loopful of the inoculated buffer is subcultured to 5 ml of nutrient broth as in the screen and incubated at 37° C. for 24 hours. (c) Dilution of the Test Solution: A loopful of the test solution is transferred to a 5 ml tube of nutrient broth, and a loopful of the inoculated buffer is transferred to the same tube of broth. […] (d) Purity of Organisms in the Test Solution: After the 15 minute subculture, a loopful of the inoculated test solution is streaked onto nutrient agar to insure that contamination has not occurred during the screen. (e) lack of Bactericidal Activity of Buffers and Other Solvents: Before a buffer or other solvent is used as a diluent, it is screened against the five organisms to insure that the buffer or solvent has no antibacterial activity itself.

[1] = tested on: Staphylococcus epidermidis; experiment: Contact germicidal screen, Staphylococcus epidermidis ATCC No. 12228; type: cell-based
Method: as §1

Bacillus subtilis = experiment: Contact germicidal screen, Bacillus subtilis ATCC No. 60511; type: cell-based
Method: as §1

[2] = tested on: Trychophyton mentagrophytes; experiment: Contact fungicidal screen, Trychophyton mentagrophytes; type: cell-based; settings: 0.1M NaOAc pH 4.6
[3] = Stability in Triacetin (preliminary formulation studies); type: physicochemical; settings: 60° C., two months
Excerpt: Triacetin is the triacetate of glycerin; it is a viscous liquid with high water solubility and very low toxicity. […] Of course other aprotic polar solvents can be used as well.

[4] = 10.0+ PPM, 0.1M NaOAc pH 4.6, screened simultaneously with four other compounds
[5] = 300 PPM with 50% Horse Serum, 0.1M NaOAc pH 4.6
[6] = 300 PPM with 50% Triton X100, 0.1M NaOAc pH 4.6
[7] = 308.0 PPM, Triton X100 (10% solution):pH 4.6 buffer 1:1
[8] = 338.7 PPM, horse serum:pH 4.6 buffer 1:1
[9] = 1000 PPM with 50% Horse Serum, 0.1M NaOAc pH 4.6
[10] = 1024.0 PPM, horse serum:pH 4.6 buffer 1:1
[11] = 1070.3 PPM, 0.1M NaH2PO4 pH 7.0

CC(C)(COC(=O)CCC(=O)O)N(Cl)Cl [(IV), 2-Dichloroamino-2-methylpropylhemisuccinate]
Sterilization Time (Staphylococcus aureus; 8.6 PPM, 0.1M NaOAc pH 4.6): 15.0 min
Sterilization Time (Staphylococcus aureus; 9.8 PPM, 0.1M NaH2PO4 pH 7.0): 15 min
Sterilization Time (Staphylococcus aureus; [4]): 15 min
Sterilization Time (summary) (Staphylococcus aureus; 10 PPM, 0.1M NaOAc pH 4.6): 15 min
Sterilization Time (summary) (Staphylococcus aureus; 100 PPM, 0.1M NaOAc pH 4.6): 2.5 min
Sterilization Time (Staphylococcus aureus; 106.2 PPM, 0.1M NaOAc pH 4.6): 2.5 min
Sterilization Time (Staphylococcus aureus; 149.7 PPM, 0.1M NaH2PO4 pH 7.0): 10.0 min
Sterilization Time (summary) (Staphylococcus aureus; [5]): 15.0 min
Sterilization Time (summary) (Staphylococcus aureus; [6]): 2.5 min
Sterilization Time (Staphylococcus aureus; [7]): 2.5 min
Sterilization Time (Staphylococcus aureus; [8]): 15.0 min
Sterilization Time (summary) (Staphylococcus aureus; [9]): 2.5 min
Sterilization Time (summary) (Staphylococcus aureus; 1000 PPM, 0.1M NaOAc pH 4.6): 0.5 min
Sterilization Time (Staphylococcus aureus; 1008.0 PPM, 0.1M NaOAc pH 4.6): 0.5 min
Sterilization Time (Staphylococcus aureus; [10]): 2.5 min
Sterilization Time (Staphylococcus aureus; [11]): 10.0 min
Sterilization Time ([1]; 8.6 PPM, 0.1M NaOAc pH 4.6): 15.0 min
Sterilization Time ([1]; 9.8 PPM, 0.1M NaH2PO4 pH 7.0): 15 min
Sterilization Time [1, 4]: 10.0 min
Sterilization Time (summary) ([1]; 10 PPM, 0.1M NaOAc pH 4.6): 10.0 min
Sterilization Time (summary) ([1]; 100 PPM, 0.1M NaOAc pH 4.6): 2.5 min
Sterilization Time ([1]; 106.2 PPM, 0.1M NaOAc pH 4.6): 2.5 min
Sterilization Time ([1]; 149.7 PPM, 0.1M NaH2PO4 pH 7.0): 15 min
Sterilization Time (summary) [1, 5]: 15 min
Sterilization Time (summary) [1, 6]: 2.5 min
Sterilization Time [1, 7]: 2.5 min
Sterilization Time [1, 8]: 15 min
Sterilization Time (summary) [1, 9]: 2.5 min
Sterilization Time (summary) ([1]; 1000 PPM, 0.1M NaOAc pH 4.6): 0.5 min
Sterilization Time ([1]; 1008.0 PPM, 0.1M NaOAc pH 4.6): 0.5 min
Sterilization Time [1, 10]: 2.5 min
Sterilization Time [1, 11]: 10.0 min
Sterilization Time (Bacillus subtilis; 8.6 PPM, 0.1M NaOAc pH 4.6): 5.0 min
Sterilization Time (Bacillus subtilis; 9.8 PPM, 0.1M NaH2PO4 pH 7.0): 15 min
Sterilization Time (Bacillus subtilis; [4]): 2.5 min
Sterilization Time (summary) (Bacillus subtilis; 10 PPM, 0.1M NaOAc pH 4.6): 2.5 min
Sterilization Time (summary) (Bacillus subtilis; 100 PPM, 0.1M NaOAc pH 4.6): 2.5 min
Sterilization Time (Bacillus subtilis; 106.2 PPM, 0.1M NaOAc pH 4.6): 2.5 min
Sterilization Time (Bacillus subtilis; 149.7 PPM, 0.1M NaH2PO4 pH 7.0): 10.0 min
Sterilization Time (summary) (Bacillus subtilis; [5]): 5.0 min
Sterilization Time (summary) (Bacillus subtilis; [6]): 0.5 min
Sterilization Time (Bacillus subtilis; [7]): 0.5 min
Sterilization Time (Bacillus subtilis; [8]): 5.0 min
Sterilization Time (summary) (Bacillus subtilis; [9]): 0.5 min
Sterilization Time (summary) (Bacillus subtilis; 1000 PPM, 0.1M NaOAc pH 4.6): 0.5 min
Sterilization Time (Bacillus subtilis; 1008.0 PPM, 0.1M NaOAc pH 4.6): 0.5 min
Sterilization Time (Bacillus subtilis; [10]): 0.5 min
Sterilization Time (Bacillus subtilis; [11]): 2.5 min
Sterilization Time ([2]; 10 PPM): 5.0 min
Sterilization Time ([2]; 100 PPM): 2.5 min
Sterilization Time ([2]; 1000 PPM): 0.5 min
decomposition in esters of polyalcohols such as Triacetin [3]: no decomposition
